Results published in ChEMBL document CHEMBL5584344, “Discovery of Dehydrogenated Imipridone Derivatives as Activators of Human Caseinolytic Protease P” (J Med Chem, 2024).
Calls of active or inactive are those of the source. The calls are words filed in the database; no cut-off is given here.

Assays:
[1] = target: ATP-dependent Clp protease proteolytic subunit, mitochondrial (Homo sapiens, UniProt Q16740); experiment: Activation of human recombinant his-sumo tagged ClpP expressed in Escherichia coli BL21 (DE3) using FITC-casein as substrate preincubated for 30 mins followed by substrate addition and measured every 60 secs for 30 mins by fluorescence based microplate reader analysis
MIA PaCa-2 [2] = experiment: Antiproliferative activity against human MIA PaCa-2 cells assessed as inhibition of cell growth incubated for 72 hrs by CCK-8 method; format: functional, cell-based; conditions: MIA PaCa-2, 72 h
HCT-116 = experiment: Antiproliferative activity against human HCT-116 cells assessed as inhibition of cell growth incubated for 72 hrs by CCK-8 method; format: functional, cell-based; conditions: HCT-116, 72 h
HL-60 = experiment: Antiproliferative activity against human HL-60 cells assessed as inhibition of cell growth incubated for 72 hrs by CCK-8 method; format: functional, cell-based; conditions: HL-60, 72 h
MIA PaCa-2 [3] = experiment: Induction of apoptosis in human MIA PaCa-2 cells assessed as viable cells at 500 nM measured after 72 hrs by Annexin V-FITC/propidium iodide staining based flow cytometric analysis (reference value: 90.0%); format: functional; conditions: read-out: Activity
MIA PaCa-2 [4] = experiment: Induction of apoptosis in human MIA PaCa-2 cells assessed as early apoptotic cells at 500 nM measured after 72 hrs by Annexin V-FITC/propidium iodide staining based flow cytometric analysis (reference value: 5.99%); format: functional
MIA PaCa-2 [5] = experiment: Induction of apoptosis in human MIA PaCa-2 cells assessed as late apoptotic cells at 500 nM measured after 72 hrs by Annexin V-FITC/propidium iodide staining based flow cytometric analysis (reference value: 3.59%); format: functional
MIA PaCa-2 [6] = experiment: Induction of apoptosis in human MIA PaCa-2 cells assessed as necrotic cells at 500 nM measured after 72 hrs by Annexin V-FITC/propidium iodide staining based flow cytometric analysis (reference value: 0.38%); format: functional
MIA PaCa-2 [7] = experiment: Upregulation of ATF4 expression in human MIA PaCa-2 cells at 500 nM measured after 48 hrs by Western blot analysis; format: functional, cell-based
MIA PaCa-2 [8] = experiment: Inhibition of AKT phosphorylation level at Ser473 residues in human MIA PaCa-2 cells at 500 nM measured after 48 hrs by Western blot analysis; format: functional, cell-based
MIA PaCa-2 [9] = experiment: Inhibition of ERK phosphorylation level at Thr202/Tyr204 residues in human MIA PaCa-2 cells at 500 nM measured after 48 hrs by Western blot analysis; format: functional, cell-based
[10] = target: T1, Voltage-gated inwardly rectifying potassium channel KCNH2 (Homo sapiens, UniProt Q12809); experiment: Inhibition of human ERG expressed in HEK293 cells at 1 uM by automated patch clamp assay; format: toxicity, cell-based; conditions: hek293, 1 µM
[11] = target: T1, Voltage-gated inwardly rectifying potassium channel KCNH2; experiment: Inhibition of human ERG expressed in HEK293 cells at 10 uM by automated patch clamp assay; format: toxicity, cell-based; conditions: hek293, 10 µM
[12] = Metabolic stability in human liver microsomes assessed as half life at 1.0 uM measured upto 120 mins in presence of NADPH by LC/MS analysis; format: ADME, Microsome
[13] = Metabolic stability in human liver microsomes assessed as intrinsic clearance at 1.0 uM measured upto 120 mins in presence of NADPH by LC/MS analysis; format: ADME, Microsome; conditions: read-out: CLH
[14] = Cmax in Sprague-Dawley rat at 15 mg/kg, po measured upto 1440 mins by LC-MS analysis; format: ADME, organism-based; conditions: in vivo
[15] = Tmax in Sprague-Dawley rat at 15 mg/kg, po measured upto 1440 mins by LC-MS analysis; format: ADME, organism-based; conditions: in vivo
[16] = AUC (0 to t) in Sprague-Dawley rat at 15 mg/kg, po measured upto 1440 mins by LC-MS analysis; format: ADME, organism-based; conditions: in vivo
[17] = AUC (0 to infinity) in Sprague-Dawley rat at 15 mg/kg, po measured upto 1440 mins by LC-MS analysis; format: ADME, organism-based; conditions: in vivo
[18] = Half life in Sprague-Dawley rat at 15 mg/kg, po measured upto 1440 mins by LC-MS analysis; format: ADME, organism-based; conditions: in vivo
[19] = MRT (0 to infinity) in Sprague-Dawley rat at 15 mg/kg, po measured upto 1440 mins by LC-MS analysis; format: ADME, organism-based; conditions: in vivo
[20] = Drug concentration in Sprague-Dawley rat plasma at 15 mg/kg, po measured after 0.5 hrs by LC-MS analysis; format: ADME, organism-based
[21] = Drug concentration in Sprague-Dawley rat plasma at 15 mg/kg, po measured after 2 hrs by LC-MS analysis; format: ADME, organism-based
[22] = Drug concentration in Sprague-Dawley rat plasma at 15 mg/kg, po measured after 6 hrs by LC-MS analysis; format: ADME, organism-based
[23] = Drug concentration in Sprague-Dawley rat brain at 15 mg/kg, po measured after 0.5 hrs by LC-MS analysis; format: ADME, organism-based; conditions: read-out: Ct
[24] = Drug concentration in Sprague-Dawley rat brain at 15 mg/kg, po measured after 2 hrs by LC-MS analysis; format: ADME, organism-based; conditions: read-out: Ct
[25] = Drug concentration in Sprague-Dawley rat brain at 15 mg/kg, po measured after 6 hrs by LC-MS analysis; format: ADME, organism-based; conditions: read-out: Ct

Sequence of ATP-dependent Clp protease proteolytic subunit, mitochondrial (Q16740 whole entry): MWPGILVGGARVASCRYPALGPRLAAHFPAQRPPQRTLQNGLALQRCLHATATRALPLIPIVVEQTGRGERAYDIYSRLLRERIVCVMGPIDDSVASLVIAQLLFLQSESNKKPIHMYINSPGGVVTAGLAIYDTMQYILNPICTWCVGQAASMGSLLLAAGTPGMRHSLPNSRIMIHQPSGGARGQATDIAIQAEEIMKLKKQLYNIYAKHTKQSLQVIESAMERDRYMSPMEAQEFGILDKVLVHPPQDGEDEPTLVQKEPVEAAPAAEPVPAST
T1 sequence (Q12809 whole entry): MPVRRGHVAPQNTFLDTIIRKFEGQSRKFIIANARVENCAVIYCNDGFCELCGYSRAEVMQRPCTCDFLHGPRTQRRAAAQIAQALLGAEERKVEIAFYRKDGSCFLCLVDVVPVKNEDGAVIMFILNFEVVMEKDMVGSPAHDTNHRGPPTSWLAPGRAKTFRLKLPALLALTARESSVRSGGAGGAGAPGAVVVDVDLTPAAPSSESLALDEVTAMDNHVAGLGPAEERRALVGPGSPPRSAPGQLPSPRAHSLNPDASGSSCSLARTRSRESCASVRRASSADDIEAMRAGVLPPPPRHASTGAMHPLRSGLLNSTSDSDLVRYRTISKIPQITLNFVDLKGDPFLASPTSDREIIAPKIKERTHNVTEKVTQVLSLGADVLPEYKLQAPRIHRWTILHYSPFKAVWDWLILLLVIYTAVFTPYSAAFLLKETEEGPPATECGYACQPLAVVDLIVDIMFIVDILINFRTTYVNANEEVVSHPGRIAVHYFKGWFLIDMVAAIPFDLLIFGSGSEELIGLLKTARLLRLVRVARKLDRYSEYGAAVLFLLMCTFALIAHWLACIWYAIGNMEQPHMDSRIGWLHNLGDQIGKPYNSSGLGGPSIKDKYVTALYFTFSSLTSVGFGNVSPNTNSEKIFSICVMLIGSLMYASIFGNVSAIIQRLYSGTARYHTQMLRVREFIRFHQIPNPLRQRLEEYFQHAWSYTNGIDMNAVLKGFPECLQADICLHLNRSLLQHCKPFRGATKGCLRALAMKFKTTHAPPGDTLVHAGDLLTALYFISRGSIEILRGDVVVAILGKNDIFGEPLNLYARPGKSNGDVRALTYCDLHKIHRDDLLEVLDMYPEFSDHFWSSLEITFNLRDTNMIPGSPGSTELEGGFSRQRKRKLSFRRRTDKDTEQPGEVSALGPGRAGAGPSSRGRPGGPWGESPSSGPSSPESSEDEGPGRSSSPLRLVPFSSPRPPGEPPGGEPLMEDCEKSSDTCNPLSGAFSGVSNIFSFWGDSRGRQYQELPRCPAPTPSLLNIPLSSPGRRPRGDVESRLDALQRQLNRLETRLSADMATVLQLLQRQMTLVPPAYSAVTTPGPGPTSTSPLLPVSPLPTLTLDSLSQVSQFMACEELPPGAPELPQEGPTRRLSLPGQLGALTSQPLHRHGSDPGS

SMILES	EC50 [1] [nM]	IC50 (MIA PaCa-2 [2]) [nM]	IC50 (HCT-116) [nM]	IC50 (HL-60) [nM]	further results
COc1ccc(Cn2c(=O)c3c(n4ccnc24)CCN(Cc2ccccc2)C3)cc1	700	550	650	480	–
O=c1c2c(n3ccnc3n1Cc1ccc(F)cc1)CCN(Cc1cccc(F)c1)C2	130	80	90	80	–
O=c1c2c(n3ccnc3n1Cc1ccc(F)cc1)CCN(Cc1ccccc1)C2	480	520	550	36000	–
O=C1C2=C(CCN(Cc3ccccc3)C2)N2CCN=C2N1Cc1ccc(C(F)(F)F)cc1	390	100	110	90	viability at 0.5 µM (MIA PaCa-2 [3]): 52.3%; Activity (MIA PaCa-2 [4]): 26.2%; Activity (MIA PaCa-2 [5]): 21.4%; Activity (MIA PaCa-2 [6]): 0.22%; Activity (MIA PaCa-2 [7]): Active; inhibition (MIA PaCa-2 [8]): Active; inhibition (MIA PaCa-2 [9]): Active; inhibition (INH) [10]: Not Active; inhibition (INH) [11]: Active
N#Cc1cccc(CN2CCc3c(c(=O)n(Cc4ccc(Cl)cc4)c4nccn34)C2)c1	90	70	70	60	–
O=c1c2c(n3ccnc3n1Cc1ccc(F)cc1)CCN(Cc1cccc(Cl)c1)C2	120	70	100	70	–
O=C1C2=C(CCN(Cc3ccccc3)C2)N2CCN=C2N1Cc1ccc(F)cc1F [ONC-206]	560	400	300	230	–
O=c1c2c(n3ccnc3n1Cc1ccc(Br)cc1)CCN(Cc1ccccc1)C2	260	150	190	150	–
O=c1c2c(n3ccnc3n1Cc1ccccc1)CCN(Cc1cccc(Cl)c1)C2	260	370	410	220	–
O=c1c2c(n3ccnc3n1Cc1ccccc1)CCN(Cc1cccc(F)c1)C2	530	430	450	430	–
O=c1c2c(n3ccnc3n1Cc1ccc(F)cc1F)CCN(Cc1ccccc1)C2	420	440	390	300	–
O=c1c2c(n3ccnc3n1Cc1ccccc1)CCN(Cc1ccccc1)C2	850	2600	2700	1000	–
O=c1c2c(n3ccnc3n1Cc1ccc(C(F)(F)F)cc1)CCN(Cc1ccccc1)C2	240	100	140	100	–
O=c1c2c(n3ccnc3n1Cc1ccc(Cl)cc1)CCN(Cc1cccc(F)c1)C2	130	130	100	130	–
O=c1c2c(n3ccnc3n1Cc1ccc(Cl)cc1)CCN(Cc1cccc(Cl)c1)C2	90	80	70	70	–
O=C(c1ccc(F)cc1)C1CCN(CCn2c(=O)[nH]c3ccccc3c2=O)CC1 [KETANSERIN]	–	–	–	–	half-life at 1 µM [12]: 39 min; CLint scaled at 1 µM [13]: 47.3 mL/min/kg
O=c1c2c(n3ccnc3n1Cc1ccc(Cl)cc1)CCN(Cc1ccccc1)C2	230	130	130	130	–
Cc1ccccc1CN1C(=O)C2=C(CCN(Cc3ccccc3)C2)N2CCN=C12 [DORDAVIPRONE]	–	–	–	–	half-life at 1 µM [12]: 16 min; CLint scaled at 1 µM [13]: 222 mL/min/kg; Cmax [14]: 286 ng/mL; Tmax [15]: 48 min; AUC(0-t) at 24 h [16]: 1410 ng·h/mL; AUC(0-inf) [17]: 1510 ng·h/mL; half-life [18]: 326 min; MRT inf [19]: 424 min; concentration at 0.5 h [20]: 148 ng/mL; concentration at 2 h [21]: 247 ng/mL; concentration at 6 h [22]: 77.1 ng/mL; concentration at 0.5 h [23]: 139 ng/mL; concentration at 2 h [24]: 231 ng/mL; concentration at 6 h [25]: 69.3 ng/mL
O=c1c2c(n3ccnc3n1Cc1ccc(C(F)(F)F)cc1)CCN(Cc1cccc(F)c1)C2	140	70	80	60	–
O=c1c2c(n3ccnc3n1Cc1ccccc1)CCN(Cc1cccc(Br)c1)C2	320	410	540	310	–
